The structures appear in SMILES notation.

Four compounds from patent publication US6403533B2, “Stabilized microbicide formulation” (Rohm and Haas Company, priority 2000, dated 2002) can be followed below.

This data set in a line: Visual examination for brown precipitate formation upon storage of dilute aqueous CMI/MI solutions. It counts as physicochemical. The conditions noted are these: storage at 55 °C, 30 ppm copper ion. The procedure: An advantage of the compositions of the present invention is that they are both physically and chemically stable as prepared and upon storage. […] By “physically stable” we mean that the compositions are fluid and show no visible brown precipitate formation after storage for at least 4 weeks at 55° C., and preferably for at least 8 weeks at 55° C. By “chemically stable” is meant that the 3-isothiazolone, particularly the CMI compound, retains at least 60%, preferably at least 70% and more preferably at least 80%, of its original concentration in the dilute solution composition after storage for at least 4 weeks at 55° C., and preferably for at least 8 weeks at 55° C.
Some embodiments of the invention are described in detail in the following Examples. All ratios, parts and percentages are expressed by weight unless otherwise specified, and all reagents used are of good commercial quality unless otherwise specified. The level of copper is reported in ppm as the level of cupric ion. Samples were considered stable when the samples were free of brown precipitate after being stored at least 4 weeks, and preferably at least 8 weeks, at 55° C. Abbreviations used in the Examples and Tables are listed below with the corresponding descriptions.
The samples tested were prepared by adding known amounts of 3-isothiazolone, copper sulfate pentahydrate, water-soluble organic solvent and DI water to a 100-ml glass jar equipped with a magnetic stir bar. The 3-isothiazolone used was an approximate 3:1 (weight/weight) mixture of CMI and MI (98% purity). Ingredients were combined in a manner to provide test solutions containing 1.5% of the 3-isothiazolone (1.53 g per 100 g total solution), 30 ppm copper ion (0.0118 g copper sulfate pentahydrate per 100 g total solution) and various concentrations of water-soluble organic solvent (0 g, 1 g, 5 g, 10 g, 25 g and 50 g per 100 g total solution, corresponding to 0%, 1%, 5%, 10%, 25% or 50% solvent, respectively); the remainder of the solution (to 100 g total) was made up with DI water. Each sample was stirred until all solids were dissolved; portions (approximately 10 g) were then transferred to 20-ml glass vials and stored at room temperature or in an oven at 55° C. The samples were visually examined at various time points to determine the formation of brown precipitate and analyzed by HPLC/UV detection to determine the amount of CMI remaining; in all cases the amount of remaining MI was unchanged (100% of original value).

For the compound `OCCCCCO` [1,5-pentanediol, 1,5-Pentandiol (Pentamethylene Glycol)], the “stabilizing effect of the solvent regarding prevention of brown precipitate formation (in words)” value (from here on “stabilizing effect”) was “effective stabilizing solvents at use levels above 1%”.
As for `CC(O)CO` (stereo not shown) [PG, Propylene Glycol (1,2-Propanediol)], the “stabilizing effect” value is given as “effective stabilizing solvent above levels of 1%”.
`CCO` [ethanol, Ethanol]: the “stabilizing effect” value is given as “effective stabilizing solvents at use levels above 1%”.
As to `CCOC(C)=O` [ethyl acetate, Ethyl Acetate], the “stabilizing effect” value is listed as “effective stabilizing solvents at use levels above 1%”.
